Read-outs that look alike come from different tables or passages of the source. Numbered stars: 1 amine (or outer) side, 2 acyl side, 3 side chain; on linkers, the order of the positions; unused ones are H or OH. Square brackets hold non-standard residues; d marks the D form. Ends that are not written are not given here. Peptide text beside a SMILES is read from it. X1 = O=C([C@H](CC(F)(F)P(=O)(O)O)N[*:1])[*:2]; pS = N[C@@H](COP(=O)(O)O)C(=O)O
Columns and labels:
CzCdc14 [1] = settings: DiFMUP; 0.5 nM enzyme, pH 7.5, 30 °C; mean of 3 ± SD
Protocol: All enzyme concentrations were 0.5 nM, except for PsCdc14 and VHR, which were assayed at 2 and 5 nM, respectively. Fluorescence intensity was measured continuously on a Synergy H1 microplate reader (BioTek) with excitation and emission wavelengths set at 358 and 450 nm, respectively. Fluorescence intensity was converted to product concentration using a 6,8-difluoro-4-methylumbelliferone standard curve. Background fluorescence was subtracted from each reaction and initial rates were calculated from the slope of the linear portion of the product concentration versus time plots. kcat and KM were calculated as described above.

MoCdc14 [2] = target: T1, MoCdc14 (Pyricularia oryzae, UniProt G4MRC9); settings: DiFMUP; 0.5 nM enzyme, pH 7.5, 30 °C; mean of 3 ± SD
T1 sequence (G4MRC9 1-474 limits assumed): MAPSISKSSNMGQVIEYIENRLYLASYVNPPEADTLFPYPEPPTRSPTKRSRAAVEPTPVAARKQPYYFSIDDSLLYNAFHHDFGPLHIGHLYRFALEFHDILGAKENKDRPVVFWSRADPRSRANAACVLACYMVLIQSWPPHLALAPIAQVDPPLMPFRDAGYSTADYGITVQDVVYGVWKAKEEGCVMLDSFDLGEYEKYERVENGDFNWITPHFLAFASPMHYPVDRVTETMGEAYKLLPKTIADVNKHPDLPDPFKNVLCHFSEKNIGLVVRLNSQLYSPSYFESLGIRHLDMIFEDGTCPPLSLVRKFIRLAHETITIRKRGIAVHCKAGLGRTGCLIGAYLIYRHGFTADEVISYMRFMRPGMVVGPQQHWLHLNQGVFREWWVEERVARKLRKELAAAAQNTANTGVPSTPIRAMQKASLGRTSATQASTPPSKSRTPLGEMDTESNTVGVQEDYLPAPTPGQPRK

ScCdc14 [3] = target: T2, ScCdc14 (Saccharomyces cerevisiae, UniProt Q00684); assay: Enzyme inhibition, DiFMUP assay; format: biochemical
T2 construct: made in house; host or cells: E. coli BL21 AI
T2 sequence (Q00684 1-447 limits assumed): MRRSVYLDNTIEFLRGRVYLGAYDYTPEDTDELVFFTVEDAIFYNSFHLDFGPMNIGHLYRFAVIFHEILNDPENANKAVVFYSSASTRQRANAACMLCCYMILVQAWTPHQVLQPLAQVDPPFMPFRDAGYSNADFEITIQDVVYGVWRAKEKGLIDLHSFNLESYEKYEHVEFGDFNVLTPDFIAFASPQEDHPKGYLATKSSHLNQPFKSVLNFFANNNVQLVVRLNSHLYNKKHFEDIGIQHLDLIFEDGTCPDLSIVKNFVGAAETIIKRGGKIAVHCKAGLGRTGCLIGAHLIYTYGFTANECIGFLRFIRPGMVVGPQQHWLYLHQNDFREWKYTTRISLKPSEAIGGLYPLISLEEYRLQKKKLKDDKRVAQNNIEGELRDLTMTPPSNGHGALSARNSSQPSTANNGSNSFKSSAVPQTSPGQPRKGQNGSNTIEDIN
Source text: Measured initial rates were converted to percent activity relative to a reaction lacking pCF2Ser peptide. […] Ki is related to IC50 by the equation Ki = IC50/([S]/KM + 1). Since [S] was equal to KM in our assays, Ki = IC50/2.

MoCdc14 [4] = target: T1, MoCdc14; assay: biochemical; set-up: species or system Magnaporthe oryzae
CzCdc14 [5] = format: biochemical, Cercospora zeina; settings: pNPP; 25 mM HEPES pH 7.5, 30 °C; mean of 3 ± SD
Protocol: Activities towards varying concentrations of para-nitrophenyl phosphate (pNPP) were measured in 100 µL assay buffer (25 mM HEPES pH 7.5, 2 mM TCEP, 1 mM EDTA, and 150 mM NaCl) at 30 °C. Enzyme concentrations were chosen to achieve absorbance values within the linear response range while satisfying the steady-state assumption where substrate consumption was < 1%. Reactions were initiated by enzyme addition and stopped with 1 N NaOH. Absorbance at 405 nm was measured on a Synergy H1 microplate reader (BioTek) and converted to product concentration using a para-nitrophenol standard curve. Initial rates were plotted as a function of substrate concentration and fit with the Michealis-Menten equation in GraphPad Prism (Version 8) to determine kcat and KM.

MoCdc14 [6] = target: T1, MoCdc14; settings: pNPP; 25 mM HEPES pH 7.5, 30 °C; mean of 3 ± SD
AnCdc14 [7] = target: T3, AnCdc14 (Aspergillus niger, UniProt A2QDS6); assay: Phosphopeptide steady-state kinetics (Biomol Green); format: biochemical; settings: phosphopeptide pS, pH 7.5, 30 °C, mean of 3 ± SD
T3 sequence (A2QDS6 1-476 limits assumed): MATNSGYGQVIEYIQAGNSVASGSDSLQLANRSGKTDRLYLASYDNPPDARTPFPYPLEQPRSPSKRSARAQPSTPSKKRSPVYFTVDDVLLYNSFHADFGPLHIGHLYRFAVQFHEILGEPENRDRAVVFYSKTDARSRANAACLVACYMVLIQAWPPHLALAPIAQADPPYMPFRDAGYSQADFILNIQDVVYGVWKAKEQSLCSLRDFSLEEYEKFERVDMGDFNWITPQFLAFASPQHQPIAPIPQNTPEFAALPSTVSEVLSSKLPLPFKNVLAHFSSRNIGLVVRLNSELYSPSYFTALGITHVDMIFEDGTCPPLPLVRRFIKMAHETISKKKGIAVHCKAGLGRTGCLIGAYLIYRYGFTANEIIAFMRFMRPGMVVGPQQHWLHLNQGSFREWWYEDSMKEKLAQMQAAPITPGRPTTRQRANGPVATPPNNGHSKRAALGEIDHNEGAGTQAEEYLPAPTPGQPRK

CzCdc14 [8] = assay: as above; format: biochemical, Cercospora zeina; settings: phosphopeptide pS, pH 7.5, 30 °C, mean of 3 ± SD
Protocol: (§1) Activities towards varying concentrations of the synthetic phosphopeptide HT(pSer)PIKSIG (Genscript Corp) were measured in 50 µL assay buffer at 30 °C essentially as described above for pNPP, except substrate consumption was limited to 10% due to limited assay sensitivity and the reaction was stopped with 100 µL Biomol Green (Enzo Life Sciences).

MoCdc14 [9] = target: T1, MoCdc14; format: biochemical, Magnaporthe oryzae; settings: phosphopeptide pS; pH 7.5, 30 °C; Biomol Green; mean of 3 ± SD
BcCdc14 [10] = target: T4, BcCdc14 (Botrytis cinerea, UniProt A0A384J4N9); assay: Phosphopeptide steady-state kinetics (Biomol Green); format: biochemical; settings: phosphopeptide pS, pH 7.5, 30 °C, mean of 3 ± SD
T4 sequence (A0A384J4N9 1-492): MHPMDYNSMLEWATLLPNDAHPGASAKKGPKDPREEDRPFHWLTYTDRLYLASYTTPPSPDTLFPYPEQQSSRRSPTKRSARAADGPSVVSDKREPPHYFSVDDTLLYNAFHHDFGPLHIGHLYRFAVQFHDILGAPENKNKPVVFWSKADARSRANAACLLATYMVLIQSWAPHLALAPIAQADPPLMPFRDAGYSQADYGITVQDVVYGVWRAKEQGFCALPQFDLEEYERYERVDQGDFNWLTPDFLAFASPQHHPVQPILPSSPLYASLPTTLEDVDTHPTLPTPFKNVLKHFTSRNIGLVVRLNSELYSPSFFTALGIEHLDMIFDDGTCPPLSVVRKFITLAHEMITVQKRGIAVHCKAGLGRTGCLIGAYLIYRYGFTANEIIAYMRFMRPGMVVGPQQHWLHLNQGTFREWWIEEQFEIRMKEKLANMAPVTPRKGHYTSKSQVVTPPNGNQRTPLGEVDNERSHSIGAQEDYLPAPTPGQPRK
Protocol: as §1

CgCdc14 [11] = target: T5, CgCdc14 (Colletotrichum gloeosporioides, UniProt A0A8H4CJA2); assay: as above; format: biochemical; settings: phosphopeptide pS, pH 7.5, 30 °C, mean of 3 ± SD
T5 sequence (A0A8H4CJA2 entry or part of it): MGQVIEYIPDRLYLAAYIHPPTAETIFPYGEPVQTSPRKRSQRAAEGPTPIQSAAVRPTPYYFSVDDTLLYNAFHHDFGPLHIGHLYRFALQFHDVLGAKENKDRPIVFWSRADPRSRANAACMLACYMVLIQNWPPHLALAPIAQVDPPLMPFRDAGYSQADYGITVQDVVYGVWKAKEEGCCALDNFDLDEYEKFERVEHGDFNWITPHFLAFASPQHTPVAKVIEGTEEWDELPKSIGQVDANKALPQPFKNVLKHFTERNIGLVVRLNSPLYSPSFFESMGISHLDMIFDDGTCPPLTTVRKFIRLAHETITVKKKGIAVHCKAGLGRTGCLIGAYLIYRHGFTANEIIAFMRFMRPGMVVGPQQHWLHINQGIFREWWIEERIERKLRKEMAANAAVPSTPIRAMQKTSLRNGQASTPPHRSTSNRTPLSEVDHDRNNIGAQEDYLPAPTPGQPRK
Protocol: as §1

RsCdc14 [12] = target: T6, RsCdc14 (Rhizoctonia solani, UniProt L8WYM4); assay: as above; format: biochemical; settings: phosphopeptide pS, pH 7.5, 30 °C, mean of 3 ± SD
T6 sequence (L8WYM4 2-162 limits assumed): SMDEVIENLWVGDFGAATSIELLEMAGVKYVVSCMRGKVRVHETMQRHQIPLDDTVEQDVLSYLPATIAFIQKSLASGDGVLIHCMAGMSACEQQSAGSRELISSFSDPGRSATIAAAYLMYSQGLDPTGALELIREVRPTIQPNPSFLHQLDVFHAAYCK
Protocol: as §1

ScCdc14 [13] = target: T2, ScCdc14; assay: as above; format: biochemical; settings: phosphopeptide pS, pH 7.5, 30 °C, mean of 3 ± SD
Protocol: as §1

BcCdc14 [14] = target: T4, BcCdc14; assay: MS specificity constant assay; format: biochemical; settings: pooled phosphopeptides 375 nM each, 1 to 1,000 nM Cdc14, pH 7.5, 30 °C; LC-MS; mean of 3 ± SD
Source text: (§2) Our primary interest was the conservation of substrate specificity. To define the specificities of the eight fungal pathogen Cdc14 homologs and compare them to the well-characterized ScCdc14, we developed a new assay that uses mass spectrometry (MS) to measure the specificity constant, kcat/KM, for a collection of synthetic phosphopeptide substrates (Fig. 3a). This assay, based on a similar assay for measuring protease specificity, is more sensitive and has a much broader linear dynamic range (Fig. 3b) than the conventional malachite green colorimetric assay used to generate the phosphopeptide data in Table 1. These advantages made it convenient for measuring Cdc14 activity towards substrates whose specificity constants can vary by several orders of magnitude. The assay also increases throughput by allowing simultaneous measurement of kcat/KM for many different substrates. The peptides were based on the Yen1 Ser583 sequence with variations designed to test the importance of the four known ScCdc14 substrate recognition features (phosphoamino acid identity, + 1 Pro, + 3 Lys/Arg, Lys/Arg near + 3). Measurements were made by integrating MS chromatogram peak areas for the phosphorylated and dephosphorylated peptide species after Cdc14 treatment and using those values to calculate the fraction of substrate consumed (Fig. 3c; see “Methods” for details). […] Results from this assay were in reasonably good agreement with conventional steady-state kinetic measurements of kcat and KM using a malachite green spectroscopic assay (compare substrate pS in Tables 1 and 2), although the MS assay consistently yielded kcat/KM ~ three to fivefold higher, likely due to sensitivity limitations of the malachite green assay with high affinity substrates.
(§3) kcat/KM measurements can be made on pooled substrate mixtures for characterizing enzymatic specificity, provided substrate concentrations are far below KM[38]. Mass spectrometry is a useful tool for monitoring reaction progress in such mixtures, as long as each substrate and product has a unique mass. […]

CgCdc14 [15] = target: T5, CgCdc14; assay: MS specificity constant assay; format: biochemical; settings: pooled phosphopeptides 375 nM each, 1 to 1,000 nM Cdc14, pH 7.5, 30 °C; LC-MS; mean of 3 ± SD
Source text: as §2, §3

ScCdc14 [16] = target: T2, ScCdc14; assay: MS specificity constant assay; format: biochemical; settings: pooled phosphopeptides 375 nM each, 1 to 1,000 nM Cdc14, pH 7.5, 30 °C; LC-MS; mean of 3 ± SD
Source text: as §2, §3

AnCdc14 [17] = target: T3, AnCdc14; assay: MS specificity constant assay; format: biochemical; settings: pooled phosphopeptides 375 nM each, 1 to 1,000 nM Cdc14, pH 7.5, 30 °C; LC-MS; mean of 3 ± SD
CzCdc14 [18] = assay: MS specificity constant assay; format: biochemical, Cercospora zeina; settings: pooled phosphopeptides 375 nM each, 1 to 1,000 nM Cdc14, pH 7.5, 30 °C; LC-MS; mean of 3 ± SD
Source text: (§4) Our primary interest was the conservation of substrate specificity. To define the specificities of the eight fungal pathogen Cdc14 homologs and compare them to the well-characterized ScCdc14, we developed a new assay that uses mass spectrometry (MS) to measure the specificity constant, kcat/KM, for a collection of synthetic phosphopeptide substrates (Fig. 3a). This assay, based on a similar assay for measuring protease specificity, is more sensitive and has a much broader linear dynamic range (Fig. 3b) than the conventional malachite green colorimetric assay used to generate the phosphopeptide data in Table 1. These advantages made it convenient for measuring Cdc14 activity towards substrates whose specificity constants can vary by several orders of magnitude. The assay also increases throughput by allowing simultaneous measurement of kcat/KM for many different substrates. The peptides were based on the Yen1 Ser583 sequence with variations designed to test the importance of the four known ScCdc14 substrate recognition features (phosphoamino acid identity, + 1 Pro, + 3 Lys/Arg, Lys/Arg near + 3). Measurements were made by integrating MS chromatogram peak areas for the phosphorylated and dephosphorylated peptide species after Cdc14 treatment and using those values to calculate the fraction of substrate consumed (Fig. 3c; see “Methods” for details). […]

MoCdc14 [19] = target: T1, MoCdc14; format: biochemical, Magnaporthe oryzae; settings: pooled phosphopeptides 375 nM each, 1 to 1,000 nM Cdc14, pH 7.5, 30 °C; LC-MS; mean of 3 ± SD
RsCdc14 [20] = target: T6, RsCdc14; assay: MS specificity constant assay; format: biochemical; settings: pooled phosphopeptides 375 nM each, 1 to 1,000 nM Cdc14, pH 7.5, 30 °C; LC-MS; mean of 3 ± SD
UmCdc14 = assay: MS specificity constant assay; format: biochemical, Ustilago maydis; settings: pooled phosphopeptides 375 nM each, 1 to 1,000 nM Cdc14, pH 7.5, 30 °C; LC-MS; mean of 3 ± SD
Source text: as §4

all Cdc14 homologs = assay: MS specificity constant assay, all homologs compared; format: biochemical
Source text: as §4

Compound: Cc1cc(=O)oc2c(F)c(OP(=O)(O)O)c(F)cc12 [DiFMUP]
- Km (CzCdc14 [1]): 66 ± 11 µM
- kcat (CzCdc14 [1]): 31 ± 2 s⁻¹
- kcat/KM (CzCdc14 [1]): 477,000 ± 10,600 M^−1 s^−1
- kcat (MoCdc14 [2]): 3 ± 0.5 s⁻¹
- kcat/KM (MoCdc14 [2]): 68,000 ± 6,100 M^−1 s^−1

Compound: CC(C)[C@H](NC(=O)[C@@H](N)CCC(=O)O)C(=O)N[C@@H](CC(F)(F)P(=O)(O)O)C(=O)N1CCC[C@H]1C(=O)N[C@H](C(=O)N[C@@H](CCCCN)C(=O)N[C@@H](CCCNC(=N)N)C(N)=O)[C@@H](C)O [pCF2Ser peptide, Glu-Val-pCF2Ser-Pro-Thr-Lys-Arg-amide] (H-EV[X1]PTKR-NH2)
- Ki (ScCdc14 [3]): 3.2 ± 1 µM
- Ki (MoCdc14 [4]): 3.4 ± 1.2 µM

Compound: O=[N+]([O-])c1ccc(OP(=O)(O)O)cc1 [pNPP, para-nitrophenyl phosphate]
- Km (CzCdc14 [5]): 25000 ± 2000 µM
- kcat (CzCdc14 [5]): 2.8 ± 0.1 s⁻¹
- kcat/KM (CzCdc14 [5]): 115 ± 6 M⁻¹ s⁻¹
- kcat (MoCdc14 [6]): 1.02 ± 0.03 s⁻¹
- kcat/KM (MoCdc14 [6]): 40 ± 2 M⁻¹ s⁻¹

Compound: HT[pS]PIKSIG
- Km (AnCdc14 [7]): 194 ± 44 µM
- kcat (AnCdc14 [7]): 1.0 ± 0.1 s⁻¹
- kcat/KM (AnCdc14 [7]): 5,100 ± 800 M^−1 s^−1
- Km (CzCdc14 [8]): 62 ± 14 µM
- kcat (CzCdc14 [8]): 2.1 ± 0.1 s⁻¹
- kcat/KM (CzCdc14 [8]): 34,000 ± 8,000 M^−1 s^−1
- Km (MoCdc14 [9]): 63 ± 19 µM
- kcat (MoCdc14 [9]): 0.4 ± 0.02 s⁻¹
- kcat/KM (MoCdc14 [9]): 6,200 ± 1,700 M^−1 s^−1
- Km (BcCdc14 [10]): 297 ± 38 µM
- kcat/KM (BcCdc14 [10]): 3,400 ± 300 M^−1 s^−1
- Km (CgCdc14 [11]): 351 ± 21 µM
- kcat (CgCdc14 [11]): 2.2 ± 0.1 s⁻¹
- kcat/KM (CgCdc14 [11]): 6,200 ± 200 M^−1 s^−1
- Km (RsCdc14 [12]): 178 ± 52 µM
- kcat (RsCdc14 [12]): 0.52 ± 0.07 s⁻¹
- kcat/KM (RsCdc14 [12]): 3,000 ± 600 M^−1 s^−1
- kcat (ScCdc14 [13]; 640 nm): 1.4 ± 0.1 s⁻¹
- Km (ScCdc14 [13]): 173 ± 21 µM
- kcat/KM (ScCdc14 [13]): 7,800 ± 300 M^−1 s^−1
- specificity constant kcat/KM (BcCdc14 [14]): 15,700 ± 1,200 M^−1 s^−1
- specificity constant kcat/KM (CgCdc14 [15]): 19,400 ± 1,800 M^−1 s^−1
- specificity constant kcat/KM (ScCdc14 [16]): 21,100 ± 1,400 M^−1 s^−1
- specificity constant kcat/KM (AnCdc14 [17]): 25,200 ± 2,200 M^−1 s^−1
- specificity constant kcat/KM (CzCdc14 [18]): 110,800 ± 10,600 M^−1 s^−1
- specificity constant kcat/KM (MoCdc14 [19]): 17,000 ± 2,500 M^−1 s^−1
- specificity constant kcat/KM (RsCdc14 [20]): 17,300 ± 1,500 M^−1 s^−1
- specificity constant kcat/KM (UmCdc14): 12,900 ± 3,300 M^−1 s^−1
- kcat/KM of pSer-containing peptide higher than pThr-containing peptide (all Cdc14 homologs): > 1,000 fold
- kcat/KM of pSer-containing peptide higher than pTyr-containing peptide (all Cdc14 homologs): > 100 fold
